# Results taken from ChEMBL document CHEMBL3525990, “Organic anion transporter 3 interacts selectively with lipophilic β-lactam antibiotics” (Drug Metab Dispos, 2013).
# Assays:
# [1] = molecular target: T1, Solute carrier family 22 member 6 (Mus musculus, UniProt Q8VC69); assay: Inhibition of mouse OAT1 expressed in CHO cells assessed as inhibition of fluorescein uptake at 500 uM over 20 mins relative to untreated-control; type: ADME, cell-based
# T1 sequence (Q8VC69 whole entry): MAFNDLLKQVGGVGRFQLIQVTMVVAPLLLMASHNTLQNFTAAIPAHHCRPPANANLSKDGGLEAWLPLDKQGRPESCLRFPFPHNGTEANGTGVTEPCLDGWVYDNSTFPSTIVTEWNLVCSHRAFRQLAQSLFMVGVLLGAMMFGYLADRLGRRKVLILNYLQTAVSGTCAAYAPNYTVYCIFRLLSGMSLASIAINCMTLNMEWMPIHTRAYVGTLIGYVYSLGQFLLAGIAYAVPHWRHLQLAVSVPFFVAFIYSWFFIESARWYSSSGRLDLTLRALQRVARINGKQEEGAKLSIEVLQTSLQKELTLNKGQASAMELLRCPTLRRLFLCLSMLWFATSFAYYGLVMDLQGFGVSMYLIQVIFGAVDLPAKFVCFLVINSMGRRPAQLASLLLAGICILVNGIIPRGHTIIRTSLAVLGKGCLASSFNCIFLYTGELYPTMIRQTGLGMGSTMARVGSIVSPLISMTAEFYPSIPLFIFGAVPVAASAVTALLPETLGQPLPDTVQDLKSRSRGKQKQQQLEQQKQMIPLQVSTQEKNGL
# [2] = molecular target: T2, Organic anion transporter 3 (Homo sapiens, UniProt Q8TCC7); assay: Inhibition of human OAT3 expressed in CHO cells assessed as inhibition of fluorescein uptake at 500 uM over 20 mins relative to untreated-control; type: ADME, cell-based; details: cho, 20 min, 500 µM
# T2 sequence (Q8TCC7 whole entry): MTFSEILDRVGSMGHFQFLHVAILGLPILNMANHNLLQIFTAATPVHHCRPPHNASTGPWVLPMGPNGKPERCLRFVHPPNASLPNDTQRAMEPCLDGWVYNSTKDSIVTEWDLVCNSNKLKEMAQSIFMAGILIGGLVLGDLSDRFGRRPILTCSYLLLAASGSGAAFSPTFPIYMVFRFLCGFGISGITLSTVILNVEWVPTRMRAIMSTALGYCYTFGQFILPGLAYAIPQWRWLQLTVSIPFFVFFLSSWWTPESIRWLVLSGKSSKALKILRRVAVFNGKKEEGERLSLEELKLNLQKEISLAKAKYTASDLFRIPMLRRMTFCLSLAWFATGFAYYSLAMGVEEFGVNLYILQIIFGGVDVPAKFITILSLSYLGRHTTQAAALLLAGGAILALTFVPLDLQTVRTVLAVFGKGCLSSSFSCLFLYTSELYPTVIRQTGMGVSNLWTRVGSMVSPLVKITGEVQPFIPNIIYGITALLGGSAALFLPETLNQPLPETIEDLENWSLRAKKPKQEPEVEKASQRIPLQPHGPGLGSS
# [3] = molecular target: T3, Organic anion transporter 3 (Mus musculus, UniProt O88909); assay: Inhibition of mouse OAT3 expressed in CHO cells assessed as inhibition of fluorescein uptake at 500 uM over 20 mins relative to untreated-control; type: ADME, cell-based
# T3 sequence (O88909 whole entry): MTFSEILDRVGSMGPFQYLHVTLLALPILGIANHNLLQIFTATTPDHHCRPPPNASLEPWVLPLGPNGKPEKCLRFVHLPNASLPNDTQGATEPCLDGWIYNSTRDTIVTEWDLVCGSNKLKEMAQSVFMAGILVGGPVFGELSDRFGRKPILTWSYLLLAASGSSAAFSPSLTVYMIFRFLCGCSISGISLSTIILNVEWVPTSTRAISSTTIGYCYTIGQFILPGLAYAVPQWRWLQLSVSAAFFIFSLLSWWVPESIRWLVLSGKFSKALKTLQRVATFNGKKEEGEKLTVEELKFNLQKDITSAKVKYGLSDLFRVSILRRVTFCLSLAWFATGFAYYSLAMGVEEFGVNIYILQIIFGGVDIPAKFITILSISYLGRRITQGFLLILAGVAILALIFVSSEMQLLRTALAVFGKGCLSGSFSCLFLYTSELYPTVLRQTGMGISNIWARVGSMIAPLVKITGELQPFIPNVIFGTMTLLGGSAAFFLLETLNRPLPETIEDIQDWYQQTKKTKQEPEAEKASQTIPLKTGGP
# [4] = molecular target: T3, Organic anion transporter 3; assay: Inhibition of mouse OAT3 expressed in CHO cells assessed as inhibition of fluorescein uptake over 20 mins; type: ADME, cell-based
# OAT3 = molecular target: T4, OAT3 (Homo sapiens, UniProt Q8TCC7); assay: Inhibition of human OAT3 expressed in CHO cells assessed as inhibition of fluorescein uptake over 20 mins relative to untreated-control; type: ADME, cell-based; details: CHO cells expressing human OAT3, probe fluorescein
# T4 sequence (Q8TCC7 whole entry): T2 sequence (Q8TCC7 whole entry)
# [5] = molecular target: T2, Organic anion transporter 3; assay: Inhibition of human OAT3 using estrone-3-sulfate as substrate; type: ADME
Structure (SMILES),inhibition (INH) [1],inhibition (INH) [2],inhibition (INH) [3],IC50 [4] [µM],inhibition at 20 min (OAT3) [%],IC50 [5] [µM]
CC1=C(C(=O)O)N2C(=O)[C@@H](NC(=O)[C@H](N)c3ccccc3)[C@H]2SC1 [CEPHALEXIN ANHYDROUS],Not Active,Not Active,,,,
CC1(C)S[C@@H]2[C@H](NC(=O)[C@H](N)c3ccccc3)C(=O)N2[C@H]1C(=O)O [AMPICILLIN],Not Active,Not Active,Not Active,,,
CO/N=C(\C(=O)N[C@@H]1C(=O)N2C(C(=O)O)=C(CSC(=O)c3ccco3)CS[C@H]12)c1csc(N)n1 [CEFTIOFUR],Not Active,Not Active,Not Active,35.7,,
Cc1onc(-c2c(Cl)cccc2Cl)c1C(=O)N[C@@H]1C(=O)N2[C@@H]1SC(C)(C)[C@@H]2C(=O)O [DICLOXACILLIN],Active,Active,Active,16.6,,
CC1(C)S[C@@H]2[C@H](NC(=O)[C@H](C(=O)O)c3ccsc3)C(=O)N2[C@H]1C(=O)O [TICARCILLIN],,Not Active,Not Active,233,,
CO/N=C(\C(=O)N[C@@H]1C(=O)N2C(C(=O)O)=C(COC(N)=O)CS[C@H]12)c1ccco1 [CEFUROXIME],Not Active,Not Active,Not Active,,,
CC1(C)S[C@@H]2[C@H](NC(=O)C(C(=O)O)c3ccccc3)C(=O)N2[C@H]1C(=O)O (stereo partly specified) [CARBENICILLIN],,Not Active,Not Active,,70,
CC1(C)S[C@@H]2[C@H](NC(=O)COc3ccccc3)C(=O)N2[C@H]1C(=O)O [PENICILLIN V],Not Active,Not Active,Not Active,48.6,,
CCN1CCN(C(=O)N[C@@H](C(=O)N[C@@H]2C(=O)N3[C@@H]2SC(C)(C)[C@@H]3C(=O)O)c2ccccc2)C(=O)C1=O [PIPERACILLIN],Active,Not Active,Not Active,,,
CO[C@@]1(NC(=O)Cc2cccs2)C(=O)N2C(C(=O)O)=C(COC(N)=O)CS[C@@H]21 [CEFOXITIN],Not Active,Not Active,Not Active,57,,
CC(=O)OCC1=C(C(=O)O)N2C(=O)[C@@H](NC(=O)Cc3cccs3)[C@H]2SC1 [CEPHALOTHIN],,Not Active,Not Active,33.3,,
NC(=O)c1cc[n+](CC2=C(C(=O)O)N3C(=O)[C@@H](NC(=O)[C@@H](c4ccccc4)S(=O)(=O)[O-])[C@H]3SC2)cc1 [CEFSULODIN],Not Active,Not Active,Not Active,,,
CC1(C)S[C@@H]2[C@H](NC(=O)Cc3ccccc3)C(=O)N2[C@H]1C(=O)O [PENICILLIN G],,Active,,89.4,,
CO/N=C(\C(=O)N[C@@H]1C(=O)N2C(C(=O)O)=C(COC(C)=O)CS[C@H]12)c1csc(N)n1 [CEFOTAXIME],,Not Active,Not Active,,,
CCOc1ccc2ccccc2c1C(=O)N[C@@H]1C(=O)N2[C@@H]1SC(C)(C)[C@@H]2C(=O)O [NAFCILLIN],Not Active,Not Active,Not Active,34.9,,
CCN1CCN(C(=O)N[C@@H](C(=O)N[C@@H]2C(=O)N3C(C(=O)O)=C(CSc4nnnn4C)CS[C@H]23)c2ccc(O)cc2)C(=O)C1=O [CEFOPERAZONE],,Not Active,Not Active,,,
CC1(C)S[C@@H]2[C@H](NC(=O)[C@H](NC(=O)N3CCNC3=O)c3ccccc3)C(=O)N2[C@H]1C(=O)O [AZLOCILLIN],Not Active,Not Active,Not Active,,,
CC(C)(O/N=C(\C(=O)N[C@@H]1C(=O)N2C(C(=O)[O-])=C(C[n+]3ccccc3)CS[C@H]12)c1csc(N)n1)C(=O)O [CEFTAZIDIME],Not Active,Not Active,Not Active,,,
CC1(C)S[C@@H]2[C@H](N)C(=O)N2[C@H]1C(=O)O,Not Active,Not Active,Not Active,,,
Cc1onc(-c2ccccc2)c1C(=O)N[C@@H]1C(=O)N2[C@@H]1SC(C)(C)[C@@H]2C(=O)O [OXACILLIN],Not Active,Active,Active,35,,
CO[C@@]1(NC(=O)CSCC#N)C(=O)N2C(C(=O)O)=C(CSc3nnnn3C)CS[C@@H]21 [CEFMETAZOLE],Active,Not Active,Not Active,105,,
Cc1onc(-c2ccccc2Cl)c1C(=O)N[C@@H]1C(=O)N2[C@@H]1SC(C)(C)[C@@H]2C(=O)O [CLOXACILLIN],Not Active,Not Active,Not Active,30.9,,
COc1cccc(OC)c1C(=O)N[C@@H]1C(=O)N2[C@@H]1SC(C)(C)[C@@H]2C(=O)O [METHICILLIN],Not Active,Not Active,Not Active,116,,
C[C@H]1[C@H](NC(=O)/C(=N\OC(C)(C)C(=O)O)c2csc(N)n2)C(=O)N1S(=O)(=O)O [AZTREONAM],Not Active,Not Active,Not Active,,,
N[C@@H](C(=O)N[C@@H]1C(=O)N2C(C(=O)O)=C(Cl)CS[C@H]12)c1ccccc1 [CEFACLOR ANHYDROUS],Not Active,Active,Not Active,,,120
